Assay results as given in PubChem BioAssay AID2060330 (Molecular Pharmacology Branch, DTP, NCI, 2025).

Test system: LG0703-F948-PDC spheroids with HUVEC/MSC, viability
Experiment: Anticancer human tumor LG0703-F948-PDC patient-derived lung adenocarcinoma cell line growth inhibition [IpAb]
Settings: for IC50: curve of first compound; for viability, T/C: stronger effect = lower value
In short: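 Combinations with ipatasertib or abemaciclib were tested on tumour spheroids holding HUVEC (25%) and MSC (15%) alongside 60% malignant cells. Top concentration was at or near clinical Cmax (10 microM if undefined), descending in half-log steps.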
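Note: spheroids exposed to compounds for seven days before readout.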
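Throughout, for viability, T/C: T/C percent relative to DMSO vehicle wells set as 100% viability.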

## Cc1nc(NC(=O)N2CCCC2C(N)=O)sc1-c1ccnc(C(C)(C)C(F)(F)F)c1 (stereo not given) + CCN1CCN(Cc2ccc(Nc3ncc(F)c(-c4cc(F)c5nc(C)n(C(C)C)c5c4)n3)nc2)CC1
Second compound 0.01 µM
  IC50: 1.48 µM
Second compound 0.0316 µM
  IC50: 1.12 µM
Second compound 0.1 µM
  IC50: 0.676 µM
Second compound 0.316 µM
  IC50: 0.955 µM
Second compound 1 µM
  IC50: 0.421 µM
Second compound 0.01 µM, first compound 0.0316 µM
  viability, T/C: 93.3%
Second compound 0.01 µM, first compound 0.1 µM
  viability, T/C: 88.1%
Second compound 0.01 µM, first compound 0.316 µM
  viability, T/C: 81.3%
Second compound 0.01 µM, first compound 1 µM
  viability, T/C: 61.2%
Second compound 0.01 µM, first compound 3.16 µM
  viability, T/C: 28.8%
Second compound 0.01 µM, first compound 10 µM
  viability, T/C: 3.09%
Second compound 0.0316 µM, first compound 0.0316 µM
  viability, T/C: 95.3%
Second compound 0.0316 µM, first compound 0.1 µM
  viability, T/C: 78.9%
Second compound 0.0316 µM, first compound 0.316 µM
  viability, T/C: 64.9%
Second compound 0.0316 µM, first compound 1 µM
  viability, T/C: 60.9%
Second compound 0.0316 µM, first compound 3.16 µM
  viability, T/C: 25.5%
Second compound 0.0316 µM, first compound 10 µM
  viability, T/C: 2.8%
Second compound 0.1 µM, first compound 0.0316 µM
  viability, T/C: 83.6%
Second compound 0.1 µM, first compound 0.1 µM
  viability, T/C: 83.2%
Second compound 0.1 µM, first compound 0.316 µM
  viability, T/C: 49.9%
Second compound 0.1 µM, first compound 1 µM
  viability, T/C: 46.4%
Second compound 0.1 µM, first compound 3.16 µM
  viability, T/C: 33%
Second compound 0.1 µM, first compound 10 µM
  viability, T/C: 3.21%
Second compound 0.316 µM, first compound 0.0316 µM
  viability, T/C: 81.9%
Second compound 0.316 µM, first compound 0.1 µM
  viability, T/C: 79.3%
Second compound 0.316 µM, first compound 0.316 µM
  viability, T/C: 60.9%
Second compound 0.316 µM, first compound 1 µM
  viability, T/C: 50.8%
Second compound 0.316 µM, first compound 3.16 µM
  viability, T/C: 30.6%
Second compound 0.316 µM, first compound 10 µM
  viability, T/C: 9.55%
Second compound 1 µM, first compound 0.0316 µM
  viability, T/C: 75.8%
Second compound 1 µM, first compound 0.1 µM
  viability, T/C: 65.5%
Second compound 1 µM, first compound 0.316 µM
  viability, T/C: 40.8%
Second compound 1 µM, first compound 1 µM
  viability, T/C: 50%
Second compound 1 µM, first compound 3.16 µM
  viability, T/C: 32.6%
Second compound 1 µM, first compound 10 µM
  viability, T/C: 12.4%
